Results reported in patent US20260137819A1 (Radionetics Oncology, Inc., priority 2022, published 2026).

Target: T1, human follicle-stimulating hormone receptor (FSHR) (Homo sapiens, UniProt P23945)
T1 construct: host or cells: CHO-K1
T1 sequence (P23945 18-695): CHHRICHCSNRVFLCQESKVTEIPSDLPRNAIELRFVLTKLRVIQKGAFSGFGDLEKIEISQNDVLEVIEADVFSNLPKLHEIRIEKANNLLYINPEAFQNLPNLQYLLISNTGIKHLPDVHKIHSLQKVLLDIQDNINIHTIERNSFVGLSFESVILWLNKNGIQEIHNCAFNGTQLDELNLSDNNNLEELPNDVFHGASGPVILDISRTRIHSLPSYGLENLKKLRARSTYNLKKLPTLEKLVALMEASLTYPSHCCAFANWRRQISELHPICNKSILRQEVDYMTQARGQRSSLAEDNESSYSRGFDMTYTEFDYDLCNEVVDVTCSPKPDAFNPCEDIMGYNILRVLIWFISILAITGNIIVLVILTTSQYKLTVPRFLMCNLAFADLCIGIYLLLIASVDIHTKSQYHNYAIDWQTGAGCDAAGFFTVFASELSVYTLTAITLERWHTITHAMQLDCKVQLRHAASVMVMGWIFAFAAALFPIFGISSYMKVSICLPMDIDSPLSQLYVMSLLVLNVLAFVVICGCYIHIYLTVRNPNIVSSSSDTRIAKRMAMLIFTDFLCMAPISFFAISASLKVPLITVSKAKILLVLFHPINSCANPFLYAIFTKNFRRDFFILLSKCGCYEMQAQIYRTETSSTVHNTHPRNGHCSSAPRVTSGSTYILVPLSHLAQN
Experiment: Measurement of agonist cAMP production by activation of human FSHR
Type: cell-based
Details: CHO-K1 human FSHR cells, 30 minutes at 37° C., HTRF cAMP kit; read-out: hFSHR Agonist cAMP EC50
Description: Measurement of agonist cAMP production by activation of human FSHR
Two days prior to the assay, 5,000 CHO—K1 human FSHR cells (Eurofins #95-0119C2) stably expressing the functional human follicle-stimulating hormone receptor were plated in a 96-well tissue culture-treated plate in growth media supplemented with the appropriate selection agent. […] The cells were incubated for 30 minutes at 37° C. (the final concentrations of the compound ranged from 0-10,000 nM). After the 30-minute incubation at 37° C., lysis buffer (HRTF CAMP kit, Cisbio #62AM5PEB)w as added directly to the cells and incubated for 30-minutes at room temperature. The diluted lysate was transferred and CAMP detection and visualization antibodies (HRTF CAMP kit, Cisbio #62AM5PEB) were added and incubated for 1-24 hours at room temperature. The time-resolved fluorescent signal was read with a Tecan M1000Pro (Tecan) multiplate reader. The intracellular cAMP concentrations were calculated by regression to a standard curve and were plotted vs. the concentration of the agonists. The concentration of test compound or FSH required to generate a half maximal response EC50 were calculated using standard curve-fitting methods. All data manipulations were performed using GraphPad Prism v9.3.1 (GraphPad, San Diego, CA).

EC50	SMILES
< 10 nM	COc1cc2c(cc1-c1cccc(NC(=O)CCCCCNC(=O)C(CS(=O)(=O)O)NC(=O)CN3CCN(CC(=O)O)CCN(CC(=O)O)CCN(CC(=O)O)CC3)c1)-c1c(c(C(=O)N3CCOCC3(C)C)nn1-c1cc(Cl)cc(Cl)c1)CO2 (stereo in doubt) [Compound 64, (R)-2,2′,2″-(10-(2-((1-((6-((3-(1-(3,5-dichlorophenyl)-3-(3,3-dimethylmorpholine-4-carbonyl)-7-methoxy-1,4-dihydrochromeno[4,3-c]pyrazol-8-yl)phenyl)amino)-6-oxohexyl)amino)-1-oxo-3-sulfopropan-2-yl)amino)-2-oxoethyl)-1,4,7,10-tetraazacyclododecane-1,4,7-triyl)triacetic acid]
< 10 nM	COc1cc2c(cc1-c1cccc(NC(=O)NCCOCCOCCOCCOCCOCCOCCNC(=O)CN3CCN(CC(=O)O)CCN(CC(=O)O)CCN(CC(=O)O)CC3)c1)-c1c(c(C(=O)N(C)C(C)(C)C)nn1-c1cc(Cl)cc(Cl)c1)CO2 [Compound 1, 2,2′,2″-(10-(1-((3-(3-(tert-butyl(methyl)carbamoyl)-1-(3,5-dichlorophenyl)-7-methoxy-1,4-dihydrochromeno[4,3-c]pyrazol-8-yl)phenyl)amino)-1,24-dioxo-5,8,11,14,17,20-hexaoxa-2,23-diazapentacosan-25-yl)-1,4,7,10-tetraazacyclododecane-1,4,7-triyl)triacetic acid]
< 10 nM	COc1cc2c(cc1-c1cccc(NC(=O)NCCOCCOCCOCCOCCNC(=O)CN3CCN(CC(=O)O)CCN(CC(=O)O)CCN(CC(=O)O)CC3)c1)-c1c(c(C(=O)N(C)C(C)(C)C)nn1-c1cc(Cl)cc(Cl)c1)CO2 [Compound 2, 2,2′,2″-(10-(1-((3-(3-(tert-butyl(methyl)carbamoyl)-1-(3,5-dichlorophenyl)-7-methoxy-1,4-dihydrochromeno|4,3-c|pyrazol-8-yl)phenyl)amino)-1,18-dioxo-5,8,11,14-tetraoxa-2,17-diazanonadecan-19-yl)-1,4,7,10-tetraazacyclododecane-1,4,7-triyl)triacetic acid]
< 10 nM	COc1cc2c(cc1-c1cccc(NC(=O)CCOCCOCCOCCOCCOCCOCCNC(=O)CN3CCN(CC(=O)O)CCN(CC(=O)O)CCN(CC(=O)O)CC3)c1)-c1c(c(C(=O)N(C)C(C)(C)C)nn1-c1cc(Cl)cc(Cl)c1)CO2 [Compound 3A, indium (III) 2,2′,2″-(10-(24-((3-(3-(tert-butyl(methyl)carbamoyl)-1-(3,5-dichlorophenyl)-7-methoxy-1,4-dihydrochromeno[4,3-c]pyrazol-8-yl)phenyl)amino)-2,24-dioxo-6,9,12,15,18,21-hexaoxa-3-azatetracosyl)-1,4,7,10-tetraazacyclododecane-1,4,7-triyl)triacetate]
< 10 nM	COc1cc2c(cc1-c1cccc(C(=O)NCCOCCOCCOCCOCCOCCOCCNC(=O)CN3CCN(CC(=O)O)CCN(CC(=O)O)CCN(CC(=O)O)CC3)c1)-c1c(c(C(=O)N(C)C(C)(C)C)nn1-c1cc(Cl)cc(Cl)c1)CO2 [Compound 4]
10 to 100 nM	COc1cc2c(cc1-c1ccc(NC(=O)NCCOCCOCCOCCOCCOCCOCCNC(=O)CN3CCN(CC(=O)O)CCN(CC(=O)O)CCN(CC(=O)O)CC3)cc1)-c1c(c(C(=O)N(C)C(C)(C)C)nn1-c1cc(Cl)cc(Cl)c1)CO2 [Compound 5, 2,2′,2″-(10-(1-((4-(3-(tert-butyl(methyl)carbamoyl)-1-(3,5-dichlorophenyl)-7-methoxy-1,4-dihydrochromeno[4,3-c]pyrazol-8-yl)phenyl)amino)-1,24-dioxo-5,8,11,14,17,20-hexaoxa-2,23-diazapentacosan-25-yl)-1,4,7,10-tetraazacyclododecane-1,4,7-triyl)triacetic acid]
< 10 nM	COc1cc2c(cc1-c1ccc(NC(=O)NCCOCCOCCOCCOCCOCCOCCNC(=O)CN3CCN(CC(=O)O)CCN(CC(=O)O)CCN(CC(=O)O)CC3)cc1)-c1c(c(C(=O)N(C)C(C)(C)C)nn1-c1cc(Cl)cc(Cl)c1)CO2 [Compound 5A, indium (III) 2,2′,2″-(10-(1-((4-(3-(tert-butyl(methyl)carbamoyl)-1-(3,5-dichlorophenyl)-7-methoxy-1,4-dihydrochromeno[4,3-c]pyrazol-8-yl)phenyl)amino)-1,24-dioxo-5,8,11,14,17,20-hexaoxa-2,23-diazapentacosan-25-yl)-1,4,7,10-tetraazacyclododecane-1,4,7-triyl)triacetate]
< 10 nM	COc1cc2c(cc1-c1ccc(NC(=O)NCCOCCOCCOCCOCCNC(=O)CN3CCN(CC(=O)O)CCN(CC(=O)O)CCN(CC(=O)O)CC3)cc1)-c1c(c(C(=O)N(C)C(C)(C)C)nn1-c1cc(Cl)cc(Cl)c1)CO2 [Compound 6, 2,2′,2″-(10-(1-((4-(3-(tert-butyl(methyl)carbamoyl)-1-(3,5-dichlorophenyl)-7-methoxy-1,4-dihydrochromeno|4,3-clpyrazol-8-yl)phenyl)amino)-1,18-dioxo-5,8,11,14-tetraoxa-2,17-diazanonadecan-19-yl)-1,4,7,10-tetraazacyclododecane-1,4,7-triyl)triacetic acid]
< 10 nM	COc1cc2c(cc1-c1cccc(NC(=O)NCCOCCOCCOCCOCCOCCOCCNC(=O)CN3CCN(CC(=O)O)CCN(CC(=O)O)CCN(CC(=O)O)CC3)c1)-c1c(c(C(=O)N3CCOCC3(C)C)nn1-c1cc(Cl)cc(Cl)c1)CO2 [Compound 7]
10 to 100 nM	COc1cc2c(cc1-c1cccc(NC(=O)NCCOCCOCCOCCOCCNC(=O)CN3CCN(CC(=O)O)CCN(CC(=O)O)CCN(CC(=O)O)CC3)c1)-c1c(c(C(=O)N3CCOCC3(C)C)nn1-c1cc(Cl)cc(Cl)c1)CO2 [Compound 8, 2,2′,2″-(10-(1-((3-(1-(3,5-dichlorophenyl)-3-(3,3-dimethylmorpholine-4-carbonyl)-7-methoxy-1,4-dihydrochromeno[4,3-c]pyrazol-8-yl)phenyl)amino)-1,18-dioxo-5,8,11,14-tetraoxa-2,17-diazanonadecan-19-yl)-1,4,7,10-tetraazacyclododecane-1,4,7-triyl)triacetic acid]
< 10 nM	COc1cc2c(cc1-c1cccc(NC(=O)NCCOCCOCCOCCOCCNC(=O)CN3CCN(CC(=O)O)CCN(CC(=O)O)CCN(CC(=O)O)CC3)c1)-c1c(c(C(=O)N3CCOCC3(C)C)nn1-c1cc(Cl)cc(Cl)c1)CO2 [Compound 8A]
10 to 100 nM	COc1cc2c(cc1-c1cccc(NC(=O)C3CCN(C(=O)CN4CCN(CC(=O)O)CCN(CC(=O)O)CCN(CC(=O)O)CC4)CC3)c1)-c1c(c(C(=O)N3CCOCC3(C)C)nn1-c1cc(Cl)cc(Cl)c1)CO2 [Compound 9, 2,2′,2″-(10-(2-(4-((3-(1-(3,5-dichlorophenyl)-3-(3,3-dimethylmorpholine-4-carbonyl)-7-methoxy-1,4-dihydrochromeno[4,3-c]pyrazol-8-yl)phenyl)carbamoyl)piperidin-1-yl)-2-oxoethyl)-1,4,7,10-tetraazacyclododecane-1,4,7-triyl)triacetic acid]
< 10 nM	COc1cc2c(cc1-c1cccc(NC(=O)NCCNC(=O)CCOCCNC(=O)CN3CCN(CC(=O)O)CCN(CC(=O)O)CCN(CC(=O)O)CC3)c1)-c1c(c(C(=O)N3CCOCC3(C)C)nn1-c1cc(Cl)cc(Cl)c1)CO2 [Compound 10, 2,2′,2″-(10-(1-((3-(1-(3,5-dichlorophenyl)-3-(3,3-dimethylmorpholine-4-carbonyl)-7-methoxy-1,4-dihydrochromeno[4,3-c]pyrazol-8-yl)phenyl)amino)-1,6,13-trioxo-9-oxa-2,5,12-triazatetradecan-14-yl)-1,4,7,10-tetraazacyclododecane-1,4,7-triyl)triacetic acid]

Same assay, conditions: hFSHR Agonist cAMP EC50, CHO-K1 human FSHR cells, 30 minutes at 37° C., HTRF cAMP kit

SMILES	EC50
COc1cc2c(cc1-c1cccc(NC(=O)CCC(=O)NC3CCN(C(=O)CN4CCN(CC(=O)O)CCN(CC(=O)O)CCN(CC(=O)O)CC4)CC3)c1)-c1c(c(C(=O)N3CCOCC3(C)C)nn1-c1cc(Cl)cc(Cl)c1)CO2 [Compound 11]	< 10 nM
